Measured values reported in patent US20150174137A1, “COMPOSITIONS FOR TREATING MICROBIAL INFECTIONS” (ALCON RESEARCH, LTD., priority 2010, published 2015).
In brackets after ≈: the same amount, converted by molar mass.

Experiments:
[1] = Solubility of finafloxacin in three magnesium chloride-containing solutions at various pH; format: physicochemical; conditions: for solubility: aqueous with cosolvent or surfactant or cyclodextrin
[2] = Solubility studies of finafloxacin monohydrochloride in aqueous solution with various salts; format: physicochemical
Source text: TABLE 1 below summarizes the results of solubility studies using finafloxacin monohydrochloride in aqueous solution with various salts at different concentrations. […] In particular, magnesium salts generated clear, colorless solutions at slightly acidic, physiologically-compatible pH ranges.

[3] = pH 7.4 in 0.1M phosphate buffer; cited from earlier work
[4] = Solubility studies of fluoroquinolones (0.3%) with ZnCl2, MgCl2 or CaCl2; conditions: quinolone 0.3%
[5] = TABLE 3A magnesium chloride-containing solution, final pH 5.73
[6] = TABLE 3A magnesium chloride-containing solution, final pH 6.23
[7] = TABLE 3A magnesium chloride-containing solution, final pH 6.58
[8] = TABLE 3A magnesium chloride-containing solution, final pH 7.12
[9] = TABLE 3A magnesium chloride-containing solution, final pH 7.55
[10] = TABLE 3B magnesium chloride-containing solution, pH 6.08
[11] = TABLE 3B magnesium chloride-containing solution, pH 6.15
[12] = TABLE 3B magnesium chloride-containing solution, pH 6.69
[13] = TABLE 3B magnesium chloride-containing solution, pH 7.29
[14] = TABLE 3B magnesium chloride-containing solution, pH 7.54
[15] = TABLE 3C magnesium chloride-containing solution, pH 5.22
[16] = TABLE 3C magnesium chloride-containing solution, pH 6.19
[17] = TABLE 3C magnesium chloride-containing solution, pH 6.65
[18] = TABLE 3C magnesium chloride-containing solution, pH 7.16
[19] = TABLE 3C magnesium chloride-containing solution, pH 7.67
[20] = 0.05% MgCl2 5.27 mM + 0.05% ZnCl2 3.67 mM
[21] = 0.05% MgCl2 5.27 mM + 0.1% ZnCl2 7.34 mM
[22] = 0.1% MgCl2 10.5 mM + 0.05% ZnCl2 3.67 mM
[23] = 0.1% MgCl2 10.5 mM + 0.1% ZnCl2 7.3 mM
[24] = AlCl3 13.5 mM, Conc. (%) 0.180%
[25] = CaGluconate 17.5 mM, Conc. (%) 0.75%
[26] = Mg(CH3COO)2 1.3 mM, Conc. (%) 0.019%
[27] = Mg(CH3COO)2 6.7 mM, Conc. (%) 0.095%
[28] = Mg(CH3COO)2 13.5 mM, Conc. (%) 0.19%
[29] = MgCl2 2.45 mM, Conc. (%) 0.023%
[30] = ZnCl2 13.5 mM, Conc. (%) 0.184%

In the case of `Cl.N#Cc1c(N2C[C@@H]3NCCO[C@H]3C2)c(F)cc2c(=O)c(C(=O)O)cn(C3CC3)c12` [Finafloxacin HCl, finafloxacin monohydrochloride], the Solubility of finafloxacin [1, 5] is reported as 0.404 w/v %, the Solubility of finafloxacin [1, 6] is reported as 0.727 w/v % and the Solubility of finafloxacin [1, 7] is reported as 0.638 w/v %. It also gave a Solubility of finafloxacin [1, 8] of 0.944 w/v %, a Solubility of finafloxacin [1, 9] of 1.244 w/v % and a Solubility of finafloxacin [1, 10] of 0.316 w/v %. It also gave a Solubility of finafloxacin [1, 11] of 0.355 w/v %, a Solubility of finafloxacin [1, 12] of 0.628 w/v % and a Solubility of finafloxacin [1, 13] of 0.915 w/v %. It also gave a Solubility of finafloxacin [1, 14] of 1.140 w/v %, a Solubility of finafloxacin [1, 15] of 0.130 w/v % and a Solubility of finafloxacin [1, 16] of 0.216 w/v %. For the same molecule, the Solubility of finafloxacin [1, 17] was 0.346 w/v %, the Solubility of finafloxacin [1, 18] was 0.501 w/v % and the Solubility of finafloxacin [1, 19] was 0.921 w/v %.

In the case of `N#Cc1c(N2C[C@@H]3NCCO[C@H]3C2)c(F)cc2c(=O)c(C(=O)O)cn(C3CC3)c12` [Finafloxacin, 8-cyano-1-cyclopropyl-6-fluoro-7-[(4aS,7aS)-hexahydropyrrolo[3,4-b]-1,4-oxazin-6(2H)-yl]-1,4-dihydro-4-oxo-3-quinoline carboxylic acid], the “C.C.S. (clear colorless solution) pH Range” value [2, 20] is reported as 4.86-5.87, the Observation [2, 20] is reported as “C.C.S” and the “C.C.S. (clear colorless solution) pH Range” value [2, 21] is reported as 4.62-5.86. For the same molecule, the Observation [2, 21] was “C.C.S”, the “C.C.S. (clear colorless solution) pH Range” value [2, 22] was 5.01-5.75 and the Observation [2, 22] was “C.C.S”. For the same molecule, the “C.C.S. (clear colorless solution) pH Range” value [2, 23] was 4.68-5.88, the Observation [2, 23] was “C.C.S” and the “C.C.S. (clear colorless solution) pH Range” value ([2]; AlCl3 1.3 mM, Conc. (%) 0.018%) was “Not Formed”. The Observation ([2]; AlCl3 1.3 mM, Conc. (%) 0.018%) was “Suspension at pH 3.7-7.4”, the “C.C.S. (clear colorless solution) pH Range” value ([2]; AlCl3 6.7 mM, Conc. (%) 0.09%) was 2.83-7.46 and the Observation ([2]; AlCl3 6.7 mM, Conc. (%) 0.09%) was “Pale-yellow→at pH 7.58”. For the same molecule, the “C.C.S. (clear colorless solution) pH Range” value [2, 24] was 2.50-7.24, the Observation [2, 24] was “Pale-yellow → at pH 7.41” and the “C.C.S. (clear colorless solution) pH Range” value ([2]; CaCl2 1.3 mM, Conc. (%) 0.015%) was “Not Formed”. For the same molecule, the Observation ([2]; CaCl2 1.3 mM, Conc. (%) 0.015%) was “Suspension at pH 3.7”, the “C.C.S. (clear colorless solution) pH Range” value ([2]; CaCl2 6.7 mM, Conc. (%) 0.075%) was “Not Formed” and the Observation ([2]; CaCl2 6.7 mM, Conc. (%) 0.075%) was “Suspension at pH 3.7”. The “C.C.S. (clear colorless solution) pH Range” value ([2]; CaCl2 13.5 mM, Conc. (%) 0.15%) was 6.45, the Observation ([2]; CaCl2 13.5 mM, Conc. (%) 0.15%) was “C.C.S” and the “C.C.S. (clear colorless solution) pH Range” value ([2]; CaCl2 20.0 mM, Conc. (%) 0.22%) was 6.29-6.39. The Observation ([2]; CaCl2 20.0 mM, Conc. (%) 0.22%) was “C.C.S”, the “C.C.S. (clear colorless solution) pH Range” value [2, 25] was “Not Formed” and the Observation [2, 25] was “Suspension at pH 3.7”. The “C.C.S. (clear colorless solution) pH Range” value ([2]; CuCl2 1.3 mM, Conc. (%) 0.018%) was “Not Formed”, the Observation ([2]; CuCl2 1.3 mM, Conc. (%) 0.018%) was “Suspension at pH 3.7-7.4” and the “C.C.S. (clear colorless solution) pH Range” value ([2]; CuCl2 6.7 mM, Conc. (%) 0.09%) was 5.14-7.26. For the same molecule, the Observation ([2]; CuCl2 6.7 mM, Conc. (%) 0.09%) was “Light blue coloration”, the “C.C.S. (clear colorless solution) pH Range” value ([2]; CuCl2 13.5 mM, Conc. (%) 0.18%) was 5.77-6.11 and the Observation ([2]; CuCl2 13.5 mM, Conc. (%) 0.18%) was “Light blue coloration”. The “C.C.S. (clear colorless solution) pH Range” value ([2]; KCl 93 mM, Conc. (%) 0.7%) was “Not Formed”, the Observation ([2]; KCl 93 mM, Conc. (%) 0.7%) was “Suspension at pH 3.7-7.4” and the “C.C.S. (clear colorless solution) pH Range” value [2, 26] was “Not Formed”. The Observation [2, 26] was “Suspension at pH 3.7-7.4”, the “C.C.S. (clear colorless solution) pH Range” value [2, 27] was 6.05-7.57 and the Observation [2, 27] was “C.C.S”. The “C.C.S. (clear colorless solution) pH Range” value [2, 28] was 5.21-8.51, the Observation [2, 28] was “C.C.S” and the “C.C.S. (clear colorless solution) pH Range” value ([2]; MgCl2 1.3 mM, Conc. (%) 0.012%) was “Not Formed”. For the same molecule, the Observation ([2]; MgCl2 1.3 mM, Conc. (%) 0.012%) was “Suspension at pH 3.7-7.4”, the “C.C.S. (clear colorless solution) pH Range” value [2, 29] was “Not Formed” and the Observation [2, 29] was “Suspension at pH 3.7-7.4”. The “C.C.S. (clear colorless solution) pH Range” value ([2]; MgCl2 4.91 mM, Conc. (%) […]) was 6.68-7.65, the Observation ([2]; MgCl2 4.91 mM, Conc. (%) […]) was “C.C.S” and the “C.C.S. (clear colorless solution) pH Range” value ([2]; MgCl2 6.7 mM, Conc. (%) 0.064%) was 6.00-9.84. The Observation ([2]; MgCl2 6.7 mM, Conc. (%) 0.064%) was “C.C.S”, the “C.C.S. (clear colorless solution) pH Range” value ([2]; MgCl2 13.5 mM, Conc. (%) 0.12%) was 5.26-9.61 and the Observation ([2]; MgCl2 13.5 mM, Conc. (%) 0.12%) was “C.C.S”. The “C.C.S. (clear colorless solution) pH Range” value ([2]; MgSO4 1.3 mM, Conc. (%) 0.016%) was “Not Formed”, the Observation ([2]; MgSO4 1.3 mM, Conc. (%) 0.016%) was “Suspension at pH 3.7-7.4” and the “C.C.S. (clear colorless solution) pH Range” value ([2]; MgSO4 6.7 mM, Conc. (%) 0.08%) was 6.36-9.23. For the same molecule, the Observation ([2]; MgSO4 6.7 mM, Conc. (%) 0.08%) was “C.C.S”, the “C.C.S. (clear colorless solution) pH Range” value ([2]; MgSO4 13.5 mM, Conc. (%) 0.16%) was 6.29-7.44 and the Observation ([2]; MgSO4 13.5 mM, Conc. (%) 0.16%) was “C.C.S”. For the same molecule, the “C.C.S. (clear colorless solution) pH Range” value ([2]; NaCl 13.5 mM, Conc. (%) 0.076%) was “Not Formed”, the Observation ([2]; NaCl 13.5 mM, Conc. (%) 0.076%) was “Suspension at pH 3.7-7.4” and the “C.C.S. (clear colorless solution) pH Range” value ([2]; NaCl 27 mM, Conc. (%) 0.15%) was “Not Formed”. For the same molecule, the Observation ([2]; NaCl 27 mM, Conc. (%) 0.15%) was “Suspension at pH 3.7-7.4”, the “C.C.S. (clear colorless solution) pH Range” value ([2]; NaCl 120 mM, Conc. (%) 0.79%) was “Not Formed” and the Observation ([2]; NaCl 120 mM, Conc. (%) 0.79%) was “Suspension at pH 3.7-7.4”. For the same molecule, the “C.C.S. (clear colorless solution) pH Range” value ([2]; NaSO4 21.3 mM, Conc. (%) 0.3%) was “Not Formed”, the Observation ([2]; NaSO4 21.3 mM, Conc. (%) 0.3%) was “Suspension at pH 3.7-7.4” and the “C.C.S. (clear colorless solution) pH Range” value ([2]; ZnCl2 1.3 mM, Conc. (%) 0.018%) was “Not Formed”. The Observation ([2]; ZnCl2 1.3 mM, Conc. (%) 0.018%) was “Suspension at pH 3.7-7.4”, the “C.C.S. (clear colorless solution) pH Range” value ([2]; ZnCl2 6.7 mM, Conc. (%) 0.09%) was 4.90-5.47 and the Observation ([2]; ZnCl2 6.7 mM, Conc. (%) 0.09%) was “C.C.S”. For the same molecule, the “C.C.S. (clear colorless solution) pH Range” value [2, 30] was 4.50-5.55, the Observation [2, 30] was “C.C.S” and the “C.C.S. (clear colorless solution) pH Range” value ([2]; ZnCl2 20.0 mM, Conc. (%) 0.27%) was 5.06-5.87. For the same molecule, the Observation ([2]; ZnCl2 20.0 mM, Conc. (%) 0.27%) was “C.C.S”, the “C.C.S. (clear colorless solution) pH Range” value ([2]; ZnSO4 13.5 mM, Conc. (%) 0.22%) was 5.65 and the Observation ([2]; ZnSO4 13.5 mM, Conc. (%) 0.22%) was “C.C.S”. For the same molecule, the solubility [1, 5] was 3700 µg/mL (≈ 9.29 mM), the solubility [1, 6] was 6660 µg/mL (≈ 16.7 mM) and the solubility [1, 7] was 5850 µg/mL (≈ 14.7 mM). The solubility [1, 8] was 8650 µg/mL (≈ 21.7 mM), the solubility [1, 9] was 11400 µg/mL (≈ 28.6 mM) and the solubility [1, 10] was 2900 µg/mL (≈ 7.28 mM). For the same molecule, the solubility [1, 11] was 3250 µg/mL (≈ 8.16 mM), the solubility [1, 12] was 5760 µg/mL (≈ 14.5 mM) and the solubility [1, 13] was 8390 µg/mL (≈ 21.1 mM). The solubility [1, 14] was 10400 µg/mL (≈ 26.2 mM), the solubility [1, 15] was 1190 µg/mL (≈ 2.99 mM) and the solubility [1, 16] was 1980 µg/mL (≈ 4.97 mM). For the same molecule, the solubility [1, 17] was 3170 µg/mL (≈ 7.96 mM), the solubility [1, 18] was 4590 µg/mL (≈ 11.5 mM) and the solubility [1, 19] was 8440 µg/mL (≈ 21.2 mM).

For `COc1c(N2CCNC(C)C2)c(F)cc2c(=O)c(C(=O)O)cn(C3CC3)c12` (stereo not shown) [GATIFLOXACIN, gatifloxacin], the literature-reported aqueous solubility [3] is given as 0.21 w/v %, the “C.C.S. (clear colorless solution) pH Range” value ([4]; CaCl2 10.0 mM, Conc. (w/v %) 0.08%) is given as 7.31-7.55 and the “C.C.S. (clear colorless solution) pH Range” value ([4]; MgCl2 10.0 mM, Conc. (w/v %) 0.09%) is given as 6.97-7.52. The “C.C.S. (clear colorless solution) pH Range” value ([4]; ZnCl2 10.0 mM, Conc. (w/v %) 0.13%) was 6.61-7.31.
